Experimental data from patent publication US5824771A, “Cyclic CRF agonists” (The Salk Institute for Biological Studies, priority 1997, dated 1998).
Read-outs that look alike come from different tables or passages of the source. Bridge positions count the residues as written; N and C are the ends. Square brackets hold non-standard residues; d marks the D form. Peptide text beside a SMILES is read from it. Nle = CCCC[C@H](N)C(=O)O

Test system: rat anterior pituitary cells
Test: In vitro stimulation of ACTH and β-endorphin secretion by cultured rat pituitary cells, potency compared with oCRF (Standard) or r/hCRF
Type: cell-based
Description: The cyclic CRF agonists are examined for their effects on the secretion of ACTH and β-endorphin in vitro and also in vivo. […] In vivo testing is carried out using the general procedure set forth in C. Rivier et al., Science, 218, 377 (1982).

[1] = relative to the laboratory Standard (synthetic oCRF), cultured rat pituitary cells, limits in parentheses

| Structure (SMILES) | in vitro potency to stimulate secretion of ACTH relative to the Standard [1] | in vitro potency to stimulate secretion of ACTH relative to the Standard | also measured |
| --- | --- | --- | --- |
| CC[C@H](C)[C@H](NC(=O)[C@@H]1CCCN1C(=O)[C@@H]1CCCN1C(C)=O)C(=O)N[C@@H](CO)C(=O)N[C@@H](CC(C)C)C(=O)N[C@@H](CC(=O)O)C(=O)N[C@@H](CC(C)C)C(=O)N[C@H](C(=O)N[C@H](Cc1ccccc1)C(=O)N[C@@H](Cc1c[nH]cn1)C(=O)N[C@@H](CC(C)C)C(=O)N[C@@H](CC(C)C)C(=O)N[C@@H](CCCNC(=N)N)C(=O)N[C@@H](CCC(=O)O)C(=O)N[C@@H](CCSC)C(=O)N[C@@H](CC(C)C)C(=O)N[C@@H](CCC(=O)O)C(=O)N[C@@H](CCSC)C(=O)N[C@@H](C)C(=O)N[C@@H](CCCCN)C(=O)N[C@@H](C)C(=O)N[C@@H](CCC(=O)O)C(=O)N[C@@H](CCC(N)=O)C(=O)N[C@@H](CCC(=O)O)C(=O)N[C@@H](C)C(=O)N[C@@H](CCC(=O)O)C(=O)N[C@H]1CCC(=O)NCCCC[C@@H](C(=O)N[C@@H](CC(N)=O)C(=O)N[C@@H](CCCNC(=N)N)C(=O)N[C@@H](CC(C)C)C(=O)N[C@@H](CC(C)C)C(=O)N[C@@H](CC(C)C)C(=O)N[C@@H](CCC(=O)O)C(=O)N[C@@H](CCC(=O)O)C(=O)N[C@@H](C)C(N)=O)NC(=O)[C@H](C)NC(=O)[C@H](C)NC1=O)[C@@H](C)O [(cyclo 30-33)[Ac-Pro^4, D-Phe^12, Glu^30, Lys^33]-AHC(4-41)] (Ac-PPISLDLT[dF]HLLREMLEMAKAEQEAEEAAKNRLLLEEA-NH2; lactam 27-30) | about 7.5 times |  |  |
| CCCC[C@H](NC(=O)[C@H](CCC(=O)O)NC(=O)[C@@H](NC(=O)[C@H](CCCC)NC(=O)[C@H](CC(N)=O)NC(=O)[C@H](CCCNC(=N)N)NC(=O)[C@H](CC(C)C)NC(=O)[C@H](CC(C)C)NC(=O)[C@H](Cc1c[nH]cn1)NC(=O)[C@@H](Cc1ccccc1)NC(=O)[C@@H](NC(=O)[C@H](CC(C)C)NC(=O)[C@H](CC(=O)O)NC(=O)[C@@H](NC(=O)[C@H](CO)NC(=O)[C@@H](NC(=O)[C@H]1CCCN1C(=O)[C@@H]1CCCN1C(C)=O)[C@@H](C)CC)[C@@H](C)CC)[C@@H](C)O)[C@@H](C)CC)C(=O)N[C@@H](C)C(=O)N[C@@H](CCCNC(=N)N)C(=O)N[C@@H](CC(N)=O)C(=O)N[C@@H](CCC(=O)O)C(=O)N[C@@H](CC(N)=O)C(=O)N[C@@H](CCC(N)=O)C(=O)N[C@@H](CCCNC(=N)N)C(=O)N[C@@H](CCC(=O)O)C(=O)N[C@H]1CCC(=O)NCCCC[C@@H](C(=O)N[C@@H](CC(N)=O)C(=O)N[C@@H](CCCNC(=N)N)C(=O)N[C@@H](CCCCN)C(=O)N[C@@H](Cc2ccc(O)cc2)C(=O)N[C@@H](CC(C)C)C(=O)N[C@@H](CC(=O)O)C(=O)N[C@@H](CCC(=O)O)C(=O)N[C@H](C(N)=O)C(C)C)NC(=O)[C@@H](C)NC(=O)[C@H](C)NC1=O [Example 8 A D-Ala^32 analog] (Ac-P[dP]ISIDLT[dF]HLLRN[Nle]IE[Nle]ARNENQREEA[dA]KNRKYLDEV-NH2; lactam 27-30) |  | about 4.9 times |  |
| CCCC[C@H](NC(=O)[C@H](CCCCN)NC(=O)[C@H](CCCNC(=N)N)NC(=O)[C@H](CC(C)C)NC(=O)[C@H](CC(C)C)NC(=O)[C@H](CCC(=O)O)NC(=O)[C@@H](CC(C)C)NC(=O)[C@H](CO)NC(=O)[C@H](CC(C)C)NC(=O)[C@H](CC(=O)O)NC(=O)[C@@H](NC(=O)[C@H](CO)NC(=O)[C@@H](NC(=O)[C@H]1CCCN1C(=O)[C@@H]1CCCN1C(C)=O)[C@@H](C)CC)[C@@H](C)CC)C(=O)N[C@H](C(=O)N[C@@H](CCC(=O)O)C(=O)N[C@H](C(=O)N[C@@H](CCC(=O)O)C(=O)N[C@@H](CCCCN)C(=O)N[C@@H](CCC(N)=O)C(=O)N[C@@H](CCC(=O)O)C(=O)N[C@@H](CCCCN)C(=O)N[C@@H](CCC(=O)O)C(=O)N[C@@H](CCCCN)C(=O)N[C@@H](CCC(N)=O)C(=O)N[C@H]1CCC(=O)NCCCC[C@@H](C(=O)N[C@@H](CC(N)=O)C(=O)N[C@@H](CCCNC(=N)N)C(=O)N[C@@H](CC(C)C)C(=O)N[C@@H](CC(C)C)C(=O)N[C@@H](CC(C)C)C(=O)N[C@@H](CC(=O)O)C(=O)N[C@H](C(=O)N[C@H](C(N)=O)[C@@H](C)CC)[C@@H](C)O)NC(=O)[C@@H](C)NC(=O)[C@H](C)NC1=O)[C@@H](C)CC)[C@@H](C)CC [Example 8 B D-Ala^31 analog] (Ac-P[dP]ISIDLS[dL]ELLRK[Nle]IEIEKQEKEKQEA[dA]KNRLLLDTI-NH2; lactam 27-30) | about 2 times |  |  |
| CCCC[C@H](NC(=O)[C@H](CCC(=O)O)NC(=O)[C@H](CC(C)C)NC(=O)[C@H](CCCC)NC(=O)[C@H](CCC(=O)O)NC(=O)[C@H](CCCNC(=N)N)NC(=O)[C@H](CC(C)C)NC(=O)[C@H](CC(C)C)NC(=O)[C@H](Cc1c[nH]cn1)NC(=O)[C@@H](Cc1ccccc1)NC(=O)[C@@H](NC(=O)[C@H](CC(C)C)NC(=O)[C@H](CC(=O)O)NC(=O)[C@H](CC(C)C)NC(=O)[C@H](CO)NC(=O)[C@@H](NC(=O)[C@H]1CCCN1C(=O)[C@@H]1CCCN1C(C)=O)[C@@H](C)CC)[C@@H](C)O)C(=O)N[C@@H](C)C(=O)N[C@@H](CCCCN)C(=O)N[C@@H](C)C(=O)N[C@@H](CCC(=O)O)C(=O)N[C@@H](CCC(N)=O)C(=O)N[C@@H](CCC(=O)O)C(=O)N[C@@H](C)C(=O)N[C@@H](CCC(=O)O)C(=O)N[C@H]1CCC(=O)NCCCC[C@@H](C(=O)N[C@@H](CC(N)=O)C(=O)N[C@@H](CCCNC(=N)N)C(=O)N[C@@H](CC(C)C)C(=O)N[C@@H](CC(C)C)C(=O)N[C@@H](CC(C)C)C(=O)N[C@@H](CCC(=O)O)C(=O)N[C@@H](CCC(=O)O)C(=O)N[C@@H](C)C(N)=O)NC(=O)[C@@H](C)NC(=O)[C@H](C)NC1=O [Example 8 C D-Ala^32 analog] (Ac-P[dP]ISLDLT[dF]HLLRE[Nle]LE[Nle]AKAEQEAEEA[dA]KNRLLLEEA-NH2; lactam 27-30) |  | about 6.35 times |  |
| CCCC[C@H](NC(=O)[C@H](CCC(=O)O)NC(=O)[C@H](CC(C)C)NC(=O)[C@H](CCCC)NC(=O)[C@H](CCC(=O)O)NC(=O)[C@H](CCCNC(=N)N)NC(=O)[C@H](CC(C)C)NC(=O)[C@H](CC(C)C)NC(=O)[C@H](Cc1c[nH]cn1)NC(=O)[C@@H](Cc1ccccc1)NC(=O)[C@@H](NC(=O)[C@H](CC(C)C)NC(=O)[C@H](CC(=O)O)NC(=O)[C@H](CC(C)C)NC(=O)[C@H](CO)NC(C)=O)[C@@H](C)O)C(=O)N[C@@H](C)C(=O)N[C@@H](CCCCN)C(=O)N[C@@H](C)C(=O)N[C@@H](CCC(=O)O)C(=O)N[C@@H](CCC(N)=O)C(=O)N[C@@H](CCC(=O)O)C(=O)N[C@@H](C)C(=O)N[C@@H](CCC(=O)O)C(=O)N[C@H]1CCC(=O)NCCCC[C@@H](C(=O)N[C@@H](CC(N)=O)C(=O)N[C@@H](CCCNC(=N)N)C(=O)N[C@@H](CC(C)C)C(=O)N[C@@H](CC(C)C)C(=O)N[C@@H](CC(C)C)C(=O)N[C@@H](CCC(=O)O)C(=O)N[C@@H](CCC(=O)O)C(=O)N[C@@H](C)C(N)=O)NC(=O)[C@H](C)NC(=O)[C@H](C)NC1=O [Example 16 A Ala^32 cyclic analog] (Ac-SLDLT[dF]HLLRE[Nle]LE[Nle]AKAEQEAEEAAKNRLLLEEA-NH2; lactam 24-27) |  |  | in vitro biopotency, comparison in words (compared with the Standard or with a named analog): biopotency greater than the Standard peptide |
